A word on the Kd: it is the free concentration of one partner at which half of the binding sites on the other are occupied at equilibrium, for simple one-to-one binding. A higher Kd goes with weaker binding.

This test concerns the target Keap1 (Homo sapiens, UniProt Q14145). The test is described as follows: Fluorescence anisotropy assay. It is filed as binding. The settings on record: for Kd: Keap1-Nrf2 binding affinity, fluorescence anisotropy assay, duplicated experiment, average; for activity in Keap1-Nrf2 fluorescence anisotropy assay: at 10 μM. In general terms: In fluorescence polarisation assays a small probe gives low polarisation when free and higher when bound to something large.

Sequence of Keap1 (Q14145 whole entry): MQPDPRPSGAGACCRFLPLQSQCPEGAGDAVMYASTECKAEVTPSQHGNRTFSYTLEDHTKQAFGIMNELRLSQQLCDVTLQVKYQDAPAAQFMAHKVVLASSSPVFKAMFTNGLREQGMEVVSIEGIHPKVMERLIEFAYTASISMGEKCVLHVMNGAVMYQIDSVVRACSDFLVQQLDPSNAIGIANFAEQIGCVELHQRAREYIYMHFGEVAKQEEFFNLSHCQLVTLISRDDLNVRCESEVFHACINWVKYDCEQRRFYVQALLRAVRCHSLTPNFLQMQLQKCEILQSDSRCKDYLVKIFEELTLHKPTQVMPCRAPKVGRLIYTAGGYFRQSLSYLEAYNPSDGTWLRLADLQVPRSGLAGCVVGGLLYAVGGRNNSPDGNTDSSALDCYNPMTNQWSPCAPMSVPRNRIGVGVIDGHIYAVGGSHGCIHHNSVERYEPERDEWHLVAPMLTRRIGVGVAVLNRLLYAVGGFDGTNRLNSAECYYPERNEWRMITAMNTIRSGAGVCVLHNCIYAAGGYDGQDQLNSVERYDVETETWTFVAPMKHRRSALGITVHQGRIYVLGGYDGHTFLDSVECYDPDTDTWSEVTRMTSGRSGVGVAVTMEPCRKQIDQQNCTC

Regarding `COc1ccc(S(=O)(=O)N(CC(N)=O)c2ccc(N(CC(N)=O)S(=O)(=O)c3cccc4ccccc34)c3ccccc23)cc1` [Compound A1, 2-(N-(4-((N-(2-amino-2-oxoethyl)-4-methoxyphenyl)sulfonamido)naphthalen-1-yl)naphthalene-1-sulfonamido)acetamide], the Kd was above 10000 nM and the “activity in Keap1-Nrf2 fluorescence anisotropy assay” value (“activity” below) is recorded as “did not show apparent activity”.

For the compound `COc1ccc(S(=O)(=O)N(CC(N)=O)c2ccc(N(CC(N)=O)S(=O)(=O)c3ccc4ccccc4c3)c3ccccc23)cc1` [Compound A2, 2-(N-(4-((N-(2-amino-2-oxoethyl)-4-methoxyphenyl)sulfonamido)naphthalen-1-yl)naphthalene-2-sulfonamido)acetamide], binding was characterised by a dissociation constant (Kd) of 1300 nM.

On to `COc1ccc(S(=O)(=O)N(CC(N)=O)c2ccc(N(CC(N)=O)S(=O)(=O)c3ccc(-c4ccccc4)cc3)c3ccccc23)cc1` [Compound A3, 2-(N-(4-((N-(2-amino-2-oxoethyl)-4-methoxyphenyl)sulfonamido)naphthalen-1-yl)-[1,1'-biphenyl]-4-sulfonamido)acetamide], for which the Kd is above 10000 nM and the “activity” value was “did not show apparent activity”.

Compound `COc1ccc(S(=O)(=O)N(CC(N)=O)c2ccc(N(CC(N)=O)S(=O)(=O)c3cccs3)c3ccccc23)cc1` [Compound A4, 2-(N-(4-((N-(2-amino-2-oxoethyl)-4-methoxyphenyl)sulfonamido)naphthalen-1-yl)thiophene-2-sulfonamido)acetamide] had a Kd of 1110 nM.

For `COc1ccc(S(=O)(=O)N(CC(N)=O)c2ccc(N(CC(N)=O)S(=O)(=O)c3ccc(Cl)nc3)c3ccccc23)cc1` [Compound A5, 2-((N-(4-((N-(2-amino-2-oxoethyl)-4-methoxyphenyl)sulfonamido)naphthalen-1-yl)-6-chloropyridine)-3-sulfonamido)acetamide], the Kd was above 10000 nM and the “activity” value is given as “did not show apparent activity”.

`COc1ccc(S(=O)(=O)N(CC(N)=O)c2ccc(N(CC(N)=O)S(=O)(=O)N3CCOCC3)c3ccccc23)cc1` [Compound A6, 2-(N-(4-((N-(2-amino-2-oxoethyl)-4-methoxyphenyl)sulfonamido)naphthalen-1-yl)morpholine-4-sulfonamido)acetamide]: the affinity, expressed as Kd, was 2070 nM.

As to `COc1ccc(S(=O)(=O)N(CC(N)=O)c2ccc(N(CC(N)=O)S(=O)(=O)c3sc(N(CC(N)=O)C(C)=O)nc3C)c3ccccc23)cc1` [Compound A7, N-(2-amino-2-oxoethyl)-N-(5-(N-(2-amino-2-oxoethyl)-N-(4-((N-(2-amino-2-oxoethyl)-4-methoxy-phenyl)sulfonamido)naphthalen-1-yl)sulfamoyl)-4-methylthiazol-2-yl)acetamide], binding was characterised by a dissociation constant (Kd) of 1430 nM.

The compound `COc1ccc(S(=O)(=O)N(CC(N)=O)c2ccc(N(CC(N)=O)S(=O)(=O)c3cn(C)cn3)c3ccccc23)cc1` [Compound A8, 2-((N-(4-((N-(2-amino-2-oxoethyl)-1-methyl-1H-imidazole)-4-sulfonamido)naphthalen-1-yl)-4-methoxyphenyl)sulfonamido)acetamide] displayed a Kd of 1150 nM.

`COc1ccc(S(=O)(=O)N(CC(N)=O)c2ccc(N(CC(N)=O)S(=O)(=O)c3cnn(C)c3)c3ccccc23)cc1` [Compound A9, 2-((N-(4-((N-(2-amino-2-oxoethyl)-1-methyl-1H-pyrazole)-4-sulfonamido)naphthalen-1-yl)-4-methoxyphenyl)sulfonamido)acetamide] had a Kd of 1140 nM.

For `COc1ccc(S(=O)(=O)N(CC(N)=O)c2ccc(N(CC(N)=O)S(=O)(=O)c3c(C)c(C)c4c(c3C)CC(C)(C)O4)c3ccccc23)cc1` [Compound A10, 2-((N-(4-((N-(2-amino-2-oxoethyl)-2,2,4,6,7-pentamethyl-2,3-dihydrobenzofuran)-5-sulfonamido)naphthalen-1-yl)-4-methoxyphenyl)sulfonamido)acetamide], the Kd was 3270 nM.

In turn, `COc1ccc(S(=O)(=O)N(CC(N)=O)c2ccc(N(CC(N)=O)S(=O)(=O)c3ccc4c(c3)CCO4)c3ccccc23)cc1` [Compound A11, 2-((N-(4-((N-(2-amino-2-oxoethyl)-2,3-dihydrobenzofuran)-5-sulfonamido)naphthalen-1-yl)-4-methoxyphenyl)sulfonamido)acetamide] had a Kd of 1280 nM.

Turning to `COc1ccc(S(=O)(=O)N(CC(N)=O)c2ccc(N(CC(N)=O)S(=O)(=O)c3c(C)noc3C)c3ccccc23)cc1` [Compound A12, 2-((N-(4-((N-(2-amino-2-oxoethyl)-3,5-dimethylisoxazole)-4-sulfonamido)naphthalen-1-yl)-4-methoxyphenyl)sulfonamido)acetamide], the Kd was above 10000 nM and the “activity” value is recorded as “did not show apparent activity”.

In the case of `COc1ccc(S(=O)(=O)N(CC(N)=O)c2ccc(N(CC(N)=O)S(=O)(=O)c3sc4ccc(Cl)cc4c3C)c3ccccc23)cc1` [Compound A13, 2-((N-(4-((N-(2-amino-2-oxoethyl)-4-methoxyphenyl)sulfonamido)naphthalen-1-yl)-5-chloro-3-methylbenzo[b]thiophene)-2-sulfonamido)acetamide], the Kd is above 10000 nM and the “activity” value is given as “did not show apparent activity”.

The record behind these values is paper PMC10331597 (Redox Biology, 2023).
